Assay results published in PMC10499793 (Nature Communications, 2023).

Tests used:
Conditions in all cases: 4-nitrothiophenol as nucleophile; 400 μM thiamine; pH 7.2, 37 °C
AcThi1 = target: T1, AcThi1 (Archangium violaceum, UniProt A0ACG8CQS0); assay: thiaminase I activity assay, 4-nitrothiophenol consumption at […] nm; type: biochemical
T1 construct: gene JRI60_22580
T1 sequence (A0ACG8CQS0 24-424): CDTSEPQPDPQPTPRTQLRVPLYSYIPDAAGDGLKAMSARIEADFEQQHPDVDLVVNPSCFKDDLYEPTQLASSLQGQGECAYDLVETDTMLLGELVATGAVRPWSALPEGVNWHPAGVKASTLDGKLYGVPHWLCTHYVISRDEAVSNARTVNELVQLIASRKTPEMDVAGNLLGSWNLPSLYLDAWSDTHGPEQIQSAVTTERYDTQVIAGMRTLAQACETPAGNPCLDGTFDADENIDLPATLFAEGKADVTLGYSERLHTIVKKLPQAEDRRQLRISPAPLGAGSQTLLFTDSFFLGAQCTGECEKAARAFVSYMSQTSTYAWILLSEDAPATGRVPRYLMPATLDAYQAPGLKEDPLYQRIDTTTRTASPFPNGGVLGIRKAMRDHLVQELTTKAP

MxThi1 = target: T2, MxThi1 (Myxococcus xanthus, UniProt Q1D3T2); assay: as above; type: biochemical
T2 construct: gene MXAN_4523
T2 sequence (Q1D3T2 36-418): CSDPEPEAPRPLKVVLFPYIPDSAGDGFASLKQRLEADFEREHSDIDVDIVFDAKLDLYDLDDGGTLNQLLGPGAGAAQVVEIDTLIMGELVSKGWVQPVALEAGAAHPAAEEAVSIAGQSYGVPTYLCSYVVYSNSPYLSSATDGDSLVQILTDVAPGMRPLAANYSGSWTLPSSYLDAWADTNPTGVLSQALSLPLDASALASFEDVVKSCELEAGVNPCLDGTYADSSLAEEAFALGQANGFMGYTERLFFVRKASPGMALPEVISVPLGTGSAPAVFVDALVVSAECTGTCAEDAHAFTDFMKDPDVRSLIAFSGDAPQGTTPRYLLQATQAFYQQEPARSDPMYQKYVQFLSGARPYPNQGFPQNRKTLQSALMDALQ

CbThi1 = target: T3, CbThi1 (Clostridium botulinum, UniProt A5HZW3)
T3 construct: gene CBO0770
T3 sequence (A5HZW3 32-404 limits assumed): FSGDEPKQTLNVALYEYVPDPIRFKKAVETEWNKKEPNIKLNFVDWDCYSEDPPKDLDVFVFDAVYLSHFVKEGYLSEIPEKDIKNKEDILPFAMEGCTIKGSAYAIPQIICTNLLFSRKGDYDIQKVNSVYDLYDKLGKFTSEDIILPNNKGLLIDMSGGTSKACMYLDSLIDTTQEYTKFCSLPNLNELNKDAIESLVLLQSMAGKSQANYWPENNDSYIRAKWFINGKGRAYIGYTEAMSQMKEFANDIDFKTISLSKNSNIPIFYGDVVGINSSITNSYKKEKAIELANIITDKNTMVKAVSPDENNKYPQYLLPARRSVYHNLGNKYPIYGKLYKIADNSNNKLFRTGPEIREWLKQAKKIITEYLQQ

SMILES: Cc1ncc(C[n+]2csc(CCO)c2C)c(N)n1 [thiamine]
- thiaminase I activity assay, 4-nitrothiophenol consumption at 411 nm (AcThi1): All these recombinant proteins exhibited thiaminase I activity
- thiaminase I activity assay, 4-nitrothiophenol consumption at 411 nm (MxThi1): All these recombinant proteins exhibited thiaminase I activity
- thiaminase I activity assay, 4-nitrothiophenol consumption at 411 nm (CbThi1): All these recombinant proteins exhibited thiaminase I activity
